Measurements taken from PMC9737184, “In Vitro Study of Cytotoxic Mechanisms of Alkylphospholipids and Alkyltriazoles in Acute Lymphoblastic Leukemia Models” (Molecules, 2022).

How the values were obtained:
cathepsin B [1] = target: T1, cathepsin B (Homo sapiens, UniProt P07858); assay: Cathepsin B inhibition, Z-FR-AMC fluorogenic assay (IC50); assay type: biochemical; conditions: Z-FR-AMC 50 µM, pH 5.5, 37 °C
Procedure: (§1) Cathepsin L was assayed in a reaction buffer of 100 mM sodium acetate, containing 100 mM NaCl, 5 mM EDTA and 20% glycerol at pH 5.5. Cathepsin B was assayed in the same buffer supplemented with 0.01% Triton X-100. The enzymes were pre-incubated in the presence of 3 mM DTT for 5 min at 37 °C in a 1 mL final volume with constant stirring. The enzyme activities were monitored using the fluorogenic probe Z-FR-AMC (50 µM and 5 µM for cathepsin B and L, respectively), and the fluorescence was monitored by spectrofluorometry using the fluorometer RF6000 (Shimadzu, Tokyo, Japan) set to λEx = 360 nm and λEm = 480 nm. […] The data were analyzed by Grafit 5.0.13 software using Equation (1). (1) y=100%/1+(x/IC50)^S

cathepsin L [2] = target: T2, cathepsin L (Homo sapiens, UniProt P07711); assay: Cathepsin L inhibition, Z-FR-AMC fluorogenic assay (IC50); assay type: biochemical; conditions: Z-FR-AMC 5 µM, pH 5.5, 37 °C
Procedure: as §1

[3] = system: Jurkat and CCRF-CEM lineages; assay: Annexin V-FITC/PI cytotoxicity, EC50 span over ALL lineages (discussion); assay type: cell-based; conditions: Homo sapiens
Procedure: (§2) Figure 2 Effects of the alkyltriazole compounds C9 and C21 on the viability of different myeloblastic and lymphoblastic leukemia lineages. Lineages cells at 2 × 10^5 cells/mL were used. Cells were exposed to concentrations ranging from 0 to 150 µM for 24 h, and cell viability was assessed by annexin V-FITC/PI staining and flow cytometric analysis. (A) Chemical structure of C9, with a hydroxyl group and an iodine atom as substituents.
(§3) Human leukemia cell lines (Kasumi-1, K-562, ARH-77, Jurkat and CCRF-CEM, see Table S2) were purchased from American Type Culture Collection-ATCC (Manassas, VA, USA). The cells were maintained in RPMI 1640 (Sigma-Aldrich, Burlington, MA, USA) culture medium, supplemented with 10% fetal bovine serum, 100 U/mL penicillin (Sigma-Aldrich, Burlington, MA, USA) and 100 µg/mL streptomycin (Sigma-Aldrich, Burlington, MA, USA). Cells were cultured in a humidified atmosphere at 37 °C and 5% CO2.
Leukemia or PBMC cells (2 × 10^5 cells/mL) were incubated for 24 h in both the absence and presence of compounds. PBMCs were also treated with vinblastine (Sigma-Aldrich, Burlington, MA, USA) for 24 h as the positive control. […]

[4] = system: CCRF-CEM (acute lymphoblastic leukemia); assay: Annexin V-FITC/PI cytotoxicity, concentration-response; assay type: cell-based; conditions: Homo sapiens, CCRF-CEM cells, 24 h
Procedure: as §2, §3
(§4) Leukemia or PBMC cells (2 × 10^5 cells/mL) were incubated for 24 h in both the absence and presence of compounds. PBMCs were also treated with vinblastine (Sigma-Aldrich, Burlington, MA, USA) for 24 h as the positive control. Then, the cells were centrifuged and resuspended in binding buffer (0.01 M HEPES, pH 7.4, containing 0.14 M NaCl, and 2.5 mM CaCl2) and incubated at room temperature with annexin V-FITC (BD Biosciences, San Jose, CA, USA) and 5 µg/mL PI (Sigma-Aldrich, Burlington, MA, USA) for 20 min. Sample analysis was performed using an Accuri C6 flow cytometer (BD Biosciences, San Jose, CA, USA) with the acquisition value of 10,000 events.

[5] = system: Jurkat (acute lymphoblastic leukemia); assay: as above; assay type: cell-based; conditions: Homo sapiens, Jurkat cells, 24 h
Procedure: as §2, §3, §4

cathepsin B [6] = target: T1, cathepsin B; assay: Cathepsin B inhibition kinetics and mechanism; assay type: biochemical; conditions: Cat B; for Mec. (mechanism of inhibition): SLNC = simple linear non-competitive, SLC = simple linear competitive
Procedure: (§5) For every kinetic measurement, the compounds were pre-incubated with each enzyme for 10 min before adding the substrate. All kinetic assays were carried out in duplicate. Inhibition constants were determined using different equations, depending on the inhibition mechanism. The assumed KM values of cathepsin B and cathepsin L for Z-FR-AMC were 23.4 µM and 2 µM, respectively, as previously described. The data of the activity rate and substrate concentration generated rectangular hyperbolic profiles that were linearized using the Lineweaver–Burk/double reciprocal plot. The replot profiles of the slope vs inhibitor and intercept vs inhibitor provided the Ki and αKi parameters, respectively.

cathepsin L [7] = target: T2, cathepsin L; assay: Cathepsin L inhibition kinetics and mechanism; assay type: biochemical; conditions: Cat L; for Mec. (mechanism of inhibition): SLNC = simple linear non-competitive, SLC = simple linear competitive
Procedure: as §5

[8] = system: PARP-1 cleavage in Jurkat cells; assay: Cleaved PARP by flow cytometry; assay type: cell-based, human; conditions: 12 h of treatment, EC50 of the compounds
Procedure: (§6) Jurkat and CCRF-CEM cells (2 × 10^5 cells/mL) were treated with C9 and C21 compounds for 12 h. Then, the cells were centrifuged, washed, fixed with 2% paraformaldehyde in PBS for 30 min and permeabilized with 0.01% saponin in PBS for 15 min at room temperature. Afterwards, the cells were incubated for 1 h at 37 °C with anti-cleaved-caspase 3-FITC monoclonal antibodies (Cell Signaling, Danvers, MA, USA) or mouse anti-cleaved PARP-PE/CF594 (Asp^214) antibodies (BD Biosciences, San Jose CA, USA). After incubation, the fluorescence was analyzed using an Accuri C6 flow cytometer (BD Biosciences, San Jose, CA, USA). A total of 10,000 events were acquired per sample.

[9] = system: PARP-1 cleavage in CCRF-CEM cells; assay: Cleaved PARP by flow cytometry; assay type: cell-based, human; conditions: 12 h of treatment, EC50 of the compounds
Procedure: as §6

CCRF-CEM cells = assay: Cytochrome c release, confocal colocalization; assay type: cell-based, human; conditions: CCRF-CEM lineage after treatment; control cells 25–35%
Procedure: The release of cytochrome c from the mitochondria was estimated by using double-labeled confocal cell imaging with MitoTracker Green (Invitrogen, Waltham, MA, USA) and a cytochrome c antibody. Jurkat and CCRF-CEM cells (2 × 10^5 cells/mL) were incubated with C9 and C21 compounds for 12 h. Then, cells were incubated with 100 nM MitoTracker Green (Invitrogen, Waltham, MA, USA) for 30 min at 37 °C. Following this, cells were washed with PBS, fixed with 2% paraformaldehyde in PBS for 30 min and permeabilized with 0.01% saponin in PBS for 15 min. Then, the cells were incubated with a monoclonal rabbit antibody against human cytochrome c at 1:100 dilutions (0.5 μg/mL, Cell Signaling, Danvers, MA, USA) for 2 h at room temperature. […] Alexa Fluor 647 was excited using a HeNe laser (λEx = 633 nm) and its emissions were detected at 650–700 nm. MitoTracker Green was excited using an argon laser (λEx = 488 nm) and its emissions were detected at 500–550 nm. DAPI was excited with a diode laser (λEx = 405 nm) and its emissions were detected at […]. […]
The quantitative evaluation of colocalization was performed by using the percentage of colocalized between channels, which correspond to the pixels with red fluorescence and green or blue fluorescence. […] The colocalization coefficient was calculated using the Imaris software.

[10] = system: cleaved caspase-3 in CCRF-CEM cells; assay: Cleaved caspase-3 by flow cytometry; assay type: cell-based, human; conditions: 12 h of treatment, EC50 of the compounds
Procedure: as §6

[11] = system: cleaved caspase-3 in Jurkat cells; assay: Cleaved caspase-3 by flow cytometry; assay type: cell-based, human; conditions: 12 h of treatment, EC50 of the compounds
Procedure: as §6

[12] = system: K562 (chronic myeloblastic leukemia); assay: Annexin V-FITC/PI cytotoxicity, concentration-response; assay type: cell-based; conditions: Homo sapiens, K562 cells, 24 h
Procedure: as §2, §3, §4

[13] = system: Kasumi-1 (acute myeloblastic leukemia); assay: as above; assay type: cell-based; conditions: Homo sapiens, Kasumi cells, 24 h
Procedure: as §2, §3, §4

[14] = system: ARH-77 (plasma cell leukemia); assay: as above; assay type: cell-based; conditions: Homo sapiens, ARH-77 cells, 24 h
Procedure: as §2, §3, §4

PBMCs = assay: Annexin V-FITC/PI cytotoxicity on healthy control cells; assay type: cell-based, human; conditions: for cytotoxicity to PBMCs compared with vinblastine: 24 h of exposure at different concentrations; for sensitivity of PBMCs compared with the tumor lineages: healthy control cells, 24 h
Excerpt: Blood was collected using EDTA Vacuum Blood Collection Tubes. Peripheral blood mononuclear cells were isolated from three normal healthy individuals after they provided informed consent and after prior approval by the local Ethics Committee of University of Mogi das Cruzes (ethical appreciation number 72986617.3.0000.5497, and approval number 2.236.397). The fraction of mononuclear cells was separated from the blood by centrifugation with Ficoll-Histopaque-1077 (density 1.077 g/mL, Sigma-Aldrich, Burlington, MA, USA) at 400× g for 30 min. Mononuclear cells were maintained in 100 U/mL penicillin and […] streptomycin in an incubator with a humidified atmosphere at 37 °C and 5% CO2.
as §4, with “events. […]” for “events.”
Figure S3. Concentration-response curve of cytotoxicity of compounds C9, C21 and vinblastine on PBMCs. PBMCs cells were cultured (2x10^5 cells/mL) on 96-well microplates. The cells were treated with compounds C9 ([…]) and C21 (≤), and vinblastine ([…]) (Sigma-Aldrich, Germany) for 24 h. After, the cells were labeled with Annexin V-FITC and 5 μg/mL PI. The results were expressed as percent-age. The data are the mean ± SEM of 3 experiments performed in duplicate.

[15] = system: T-cell lymphomas lineages; design: method as in PMID 24225136; conditions: cited from earlier work

T2 sequence (P07711 114-333): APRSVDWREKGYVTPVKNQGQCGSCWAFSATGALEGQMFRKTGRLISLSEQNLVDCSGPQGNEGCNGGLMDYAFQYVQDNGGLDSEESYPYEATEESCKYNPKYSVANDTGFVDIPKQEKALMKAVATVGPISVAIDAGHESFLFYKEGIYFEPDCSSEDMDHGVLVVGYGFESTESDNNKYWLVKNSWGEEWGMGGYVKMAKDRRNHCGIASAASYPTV

Compound | IC50 (cathepsin B [1]) [µM] | IC50 (cathepsin L [2]) [µM] | EC50 [4] [µM] | EC50 [5] [µM] | Ki (cathepsin B [6]) [µM] | Ki (cathepsin L [7]) [µM] | αKi (cathepsin L [7]) [µM] | PARP-1 cleavage [8] | PARP-1 cleavage [9] | colocalization coefficient between the green and red channel (CCRF-CEM cells) | cleaved caspase-3 [10] | cleaved caspase-3 [11] | EC50 [12] [µM] | EC50 [13] [µM] | EC50 [14] [µM] | cytotoxicity to PBMCs compared with vinblastine (PBMCs) | sensitivity of PBMCs compared with the tumor lineages (PBMCs) | also measured
CCCCCCCCCCCCCCCCOP(=O)([O-])OCC[N+](C)(C)C [Compound 1, hexadecyl 2-(trimethylazaniumyl)ethyl phosphate, reference compound] | 7.5 ± 0.1 | 10.5 ± 0.2 | 120 ± 3 | 186 ± 12 |  |  |  |  |  |  |  |  |  |  |  |  |  | EC50 ([3]; against the studied lines): 120 to 200 µM
OCCCc1cn(CCCCCCCCCCCCI)nn1 [Compound 9] | 3.5 ± 0.2 | 1.3 ± 0.1 | 40 ± 1.2 | 63 ± 1 | 15.3 ± 0.6 | 3.56 ± 0.26 | 3.66 ± 0.07 | observed | did not occur | 30–40% | less intense | increase | > 140 | > 140 | 71 ± 0.8 | less cytotoxic than vinblastine | significantly less sensitive | Mec. (mechanism of inhibition) (cathepsin B [6]; listed as C9): simple linear competitive inhibition and SLC; Mec. (mechanism of inhibition) (cathepsin L [7]; listed as C9): simple linear noncompetitive inhibition and SLNC; α (cathepsin L [7]; listed as C9): 1; EC50 ([3]; in Jurkat and CCRF-CEM lineages): 40 to 70 µM
CCCCCCCC/C=C\CCCCCCCCCCCCOP(=O)([O-])OCC[N+](C)(C)C [erufosine] |  |  |  |  |  |  |  |  |  |  |  |  |  |  |  |  |  | EC50 [15]: ~60 µM
CC(=O)OCCCc1cn(CCCCCCCCCCCCOS(C)(=O)=O)nn1 [Compound 21] | 3.9 ± 0.2 | 1.6 ± 0.1 | 60 ± 2 | 77 ± 1.5 | 27.4 ± 1.2 | 9.72 ± 1.23 | 10.47 ± 1.17 | observed | did not occur | 30–40% | less intense | increase | > 140 | > 140 | 96 ± 1 | less cytotoxic than vinblastine | significantly less sensitive | α (cathepsin B [6]): 1.6; αKi (cathepsin B [6]): 43.9 ± 1.7 µM; Mec. (mechanism of inhibition) (cathepsin B [6]; listed as C21): simple linear noncompetitive inhibition and SLNC; Mec. (mechanism of inhibition) (cathepsin L [7]; listed as C21): simple linear noncompetitive inhibition and SLNC; α (cathepsin L [7]; listed as C21): 1
